Test [1] deals with pulmonary hypertension induced by injection of monocrotaline in rats. The experiment in a line: Survival of rats with monocrotaline-induced pulmonary hypertension. It counts as in vivo, Male Sprague-Dawley rats. The method, then: Male Sprague-Dawley rats weighing about 300 g received a subcutaneous injection of monocrotaline (MCT) at a dose of 80 mg/kg.
The treatment with irbesartan was started either 21 days or 14 days after injection of monocrotaline. Irbesartan was incorporated into the food in powder form. The control animals received food alone.
Throughout the study, the animals were examined daily.
In a first study, irbesartan was administered alone at a dose of 50 mg/kg. In a second study, irbesartan was administered alone at a dose of 30 mg/kg and in combination with hydrochlorothiazide (HCTZ): irbesartan: 30 mg/kg and HCTZ: 10 mg/kg.

For test [2], the system named is pulmonary hypertension induced with monocrotaline. The following applies: reported by L. Cassis et al. and R. Kreutz et al.; cited from earlier work.
Setting [3] is: Study 2, treatment started on the 14th day post-MCT, irbesartan 30 mg/kg, HCTZ 10 mg/kg, alone or in combination.
Setting [4] is: Study 1, irbesartan 50 mg/kg in food, treatment started on the 14th day after MCT 80 mg/kg s.c.
Setting [5] is: Study 1, irbesartan 50 mg/kg in food, treatment started on the 21st day after MCT 80 mg/kg s.c.

On to `NS(=O)(=O)c1cc2c(cc1Cl)NCNS2(=O)=O` [HCTZ, hydrochlorothiazide], for which, in test [1] (setting [3]), the “Survival to the 50th day” value was determined as 25% and the “Survival to the end of the study (85th day)” value amounted to 4.2%.
As to `CCCCC1=NC2(CCCC2)C(=O)N1Cc1ccc(-c2ccccc2-c2nnn[nH]2)cc1` [Irbesartan], the “Survival time of the MCT-treated rats” value in test [1] (50 mg/kg/day, either from the 21st day or from the 14th day post-MCT) is “significantly increased the survival time”. The results for the “Survival to the 25th day” value in test [1] (setting [4]) and in test [1] (setting [5]) were 100% (12/12) and 100% (18/18), respectively. The “Survival to the 50th day” value in test [1] (setting [4]) is 83% (10/12); in test [1] (setting [5]) it was 72% (13/18); in test [1] (setting [3]) it was 47.8%. The “Survival to the end of the study (100th day)” value in test [1] (setting [4]) was 50% (6/12); in test [1] (Study 1, irbesartan 50 mg/kg in food, treatment started on the 14th day after MCT 80 mg/kg s.c., listed as irbesartan) it was 50%. In addition, the “Survival to the end of the study (57th day)” value is 61% (11/18) in test [1] (setting [5]) and 61% in test [1] (Study 1, irbesartan 50 mg/kg in food, treatment started on the 21st day after MCT 80 mg/kg s.c., listed as irbesartan). In addition, in test [1] (Study 1, irbesartan 50 mg/kg, treatment started on the 14th day post-MCT, control group 46 days), the “Overall survival time estimated” value is listed as above 93 days. Besides, in test [1] (Study 2, treatment started on the 14th day post-MCT, irbesartan 30 mg/kg alone or with HCTZ 10 mg/kg), the “Median estimated survival time” value is 46 days. For the same molecule, the “Survival to the end of the study (85th day)” value in test [1] (setting [3]) was determined as 0%.
With `CCCCc1nc(Cl)c(CO)n1Cc1ccc(-c2ccccc2-c2nn[nH]n2)cc1` [losartan], the “Effect in the monocrotaline pulmonary hypertension model” value in test [2] is listed as “no effect”.

Source of the values: US8088827B2, “Use of irbesartan for the preparation of medicinal products that are useful for treating pulmonary hypertension” (Sanofi-Aventis, priority 2001, dated 2012).
